Assay results from paper PMC5590943, “Pharmacological characterisation of S 47445, a novel positive allosteric modulator of AMPA receptors” (PLoS ONE, 2017).

Experiments:
[1] = target: T1, human AMPA receptor GluA1i (GluA1 flip) (Homo sapiens, UniProt P42261); experiment: Glutamate-evoked currents, oocytes expressing recombinant human AMPA receptors; type: cell-based
T1 construct: host or cells: Xenopus laevis oocytes
Experimental: (§1) Compounds were tested by bath application.

[2] = target: T2, human AMPA receptor GluA1i/2i (Homo sapiens, UniProt P42261+P42262, Q607R); experiment: as above; type: cell-based
T2 construct: host or cells: Xenopus laevis oocytes
Experimental: as §1

[3] = target: T3, human AMPA receptor GluA1i/2o (Homo sapiens, UniProt P42261+P42262, Q607R); experiment: as above; type: cell-based
T3 construct: host or cells: Xenopus laevis oocytes
Experimental: as §1

[4] = target: T4, human AMPA receptor GluA1o (GluA1 flop) (Homo sapiens, UniProt P42261); experiment: as above; type: cell-based
T4 construct: host or cells: Xenopus laevis oocytes
Experimental: as §1

[5] = system: human AMPA receptor GluA1o (GluA1 flop); experiment: as above; type: cell-based; conditions: S 47445 100 μM
Experimental: as §1

[6] = target: T5, human AMPA receptor GluA1o/2i (Homo sapiens, UniProt P42261+P42262, Q607R); experiment: as above; type: cell-based
T5 construct: host or cells: Xenopus laevis oocytes
Experimental: as §1

[7] = target: T6, human AMPA receptor GluA1o/2o (Homo sapiens, UniProt P42261+P42262, Q607R); experiment: as above; type: cell-based
T6 construct: host or cells: Xenopus laevis oocytes
Experimental: as §1

[8] = target: T7, human AMPA receptor GluA4i (GluA4 flip) (Homo sapiens, UniProt P48058); experiment: as above; type: cell-based
T7 construct: host or cells: Xenopus laevis oocytes
Experimental: as §1

[9] = target: T8, human AMPA receptor GluA4i/2i (Homo sapiens, UniProt P42262+P48058, Q607R); experiment: as above; type: cell-based
T8 construct: host or cells: Xenopus laevis oocytes
Experimental: as §1

[10] = target: T9, human AMPA receptor GluA4i/2o (Homo sapiens, UniProt P42262+P48058, Q607R); experiment: as above; type: cell-based
T9 construct: host or cells: Xenopus laevis oocytes
Experimental: as §1

[11] = target: T10, human AMPA receptor GluA4o (GluA4 flop) (Homo sapiens, UniProt P48058, A778Q/D799G/G801D/K798G/P767A/P797S/S776N/S800G/T766N/V780L); experiment: as above; type: cell-based
T10 construct: host or cells: Xenopus laevis oocytes
T10 sequence (P48058 21-902 T766N/P767A/S776N/A778Q/V780L/P797S/K798G/D799G/S800G/G801D): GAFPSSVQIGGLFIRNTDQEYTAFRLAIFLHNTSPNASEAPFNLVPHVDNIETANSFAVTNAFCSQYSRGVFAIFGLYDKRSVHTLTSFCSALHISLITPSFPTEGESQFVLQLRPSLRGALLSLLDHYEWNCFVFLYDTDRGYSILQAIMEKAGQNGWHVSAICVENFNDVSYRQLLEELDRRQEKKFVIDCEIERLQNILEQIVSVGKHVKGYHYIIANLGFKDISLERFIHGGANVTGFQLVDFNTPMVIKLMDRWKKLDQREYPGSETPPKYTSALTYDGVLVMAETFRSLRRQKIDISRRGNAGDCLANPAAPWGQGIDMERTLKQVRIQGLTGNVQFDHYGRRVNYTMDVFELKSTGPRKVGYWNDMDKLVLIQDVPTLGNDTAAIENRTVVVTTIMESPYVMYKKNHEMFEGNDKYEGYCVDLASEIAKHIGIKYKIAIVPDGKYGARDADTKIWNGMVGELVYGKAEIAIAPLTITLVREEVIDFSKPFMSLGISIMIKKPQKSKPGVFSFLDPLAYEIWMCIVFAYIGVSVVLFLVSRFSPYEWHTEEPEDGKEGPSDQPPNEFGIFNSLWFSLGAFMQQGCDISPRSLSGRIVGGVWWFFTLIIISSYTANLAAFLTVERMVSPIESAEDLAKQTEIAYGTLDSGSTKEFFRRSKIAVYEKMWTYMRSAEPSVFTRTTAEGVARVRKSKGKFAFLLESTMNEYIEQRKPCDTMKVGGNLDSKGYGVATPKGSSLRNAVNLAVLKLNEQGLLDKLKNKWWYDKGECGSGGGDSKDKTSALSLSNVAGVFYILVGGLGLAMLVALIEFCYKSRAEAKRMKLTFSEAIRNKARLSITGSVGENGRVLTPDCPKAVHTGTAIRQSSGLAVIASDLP
Experimental: as §1

[12] = target: T11, human AMPA receptor GluA4o/2i (Homo sapiens, UniProt P42262+P48058, Q607R); experiment: as above; type: cell-based
T11 construct: host or cells: Xenopus laevis oocytes
T11 sequence (P48058 21-902 T766N/P767A/S776N/A778Q/V780L/P797S/K798G/D799G/S800G/G801D): as above
T11 sequence (P42262 25-883 isoform P42262-2 Q607R): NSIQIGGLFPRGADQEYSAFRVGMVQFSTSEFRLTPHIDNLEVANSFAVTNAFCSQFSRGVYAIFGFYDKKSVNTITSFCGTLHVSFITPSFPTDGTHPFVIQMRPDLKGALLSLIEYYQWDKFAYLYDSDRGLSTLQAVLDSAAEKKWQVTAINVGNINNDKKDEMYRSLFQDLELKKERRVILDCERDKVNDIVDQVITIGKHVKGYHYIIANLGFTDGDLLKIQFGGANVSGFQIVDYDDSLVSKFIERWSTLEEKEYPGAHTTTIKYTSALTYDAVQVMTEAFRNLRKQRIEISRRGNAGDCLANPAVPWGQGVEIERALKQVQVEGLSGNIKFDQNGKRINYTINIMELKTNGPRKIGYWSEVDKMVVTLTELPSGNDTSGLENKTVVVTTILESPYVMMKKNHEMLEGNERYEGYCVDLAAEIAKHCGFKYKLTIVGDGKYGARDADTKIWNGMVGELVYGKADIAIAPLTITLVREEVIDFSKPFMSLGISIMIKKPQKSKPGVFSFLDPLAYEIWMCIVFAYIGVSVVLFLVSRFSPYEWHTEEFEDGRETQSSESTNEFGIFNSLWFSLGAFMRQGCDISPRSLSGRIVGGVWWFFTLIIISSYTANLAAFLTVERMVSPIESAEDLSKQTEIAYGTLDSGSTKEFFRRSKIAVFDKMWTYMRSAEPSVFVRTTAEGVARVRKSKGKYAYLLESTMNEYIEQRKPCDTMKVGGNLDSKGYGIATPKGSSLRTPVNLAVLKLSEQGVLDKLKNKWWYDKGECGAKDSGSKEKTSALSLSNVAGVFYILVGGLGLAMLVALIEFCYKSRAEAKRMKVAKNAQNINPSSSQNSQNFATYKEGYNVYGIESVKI
Experimental: as §1

[13] = target: T12, human AMPA receptor GluA4o/2o (Homo sapiens, UniProt P42262+P48058, A778Q/D799G/G801D/K798G/P767A/P797S/Q607R/S776N/S800G/T766N/V780L); experiment: as above; type: cell-based
T12 construct: host or cells: Xenopus laevis oocytes
T12 sequence (P48058 21-902 T766N/P767A/S776N/A778Q/V780L/P797S/K798G/D799G/S800G/G801D): as the sequence (P48058 21-902 T766N/P767A/S776N/A778Q/V780L/P797S/K798G/D799G/S800G/G801D) above
T12 sequence (P42262 25-883 Q607R): as the sequence (P42262 25-883 isoform P42262-2 Q607R) above, with T741N, P742A, S751N, V755L, A772S, K773G, D774G, S775G, G776D counted along it
Experimental: as §1

[14] = target: AMPA/Kainate chimera GluA1(K2NTD) (Homo sapiens, UniProt P42261+Q13002); experiment: Glutamate-evoked current in oocytes expressing AMPA/Kainate chimera; type: cell-based
Experimental: as §1

male NMRI mice = experiment: Functional observation battery in mice; type: in vivo, mouse
Experimental: The effect of 47445 after high doses administration was assessed on general behaviour in mice. Male NMRI mice (18–22 g, Janvier Labs, Le Genest Saint Isle, France) were used and placed individually for habituation, 15 min before administration. Room temperature was maintained at 20.9°C during experimentation. At T0 min, body temperature was monitored via a rectal probe connected to a computer (Viewpoint). Mice were then orally treated with S 47445 (30, 100 and 300 mg/kg) or vehicle. […] Delta of body temperature compared to T0 min (°C) was calculated. Groups were compared for body temperature at T0 min with a one-way ANOVA followed by Tukey’s pair-wise comparison post hoc tests. The treatment effect on delta of body temperature compared to T0 min was analysed using a two-way ANOVA followed by Dunnett’s post hoc tests. Analyses were performed using SAS v9.2 software (SAS Institute, Cary, NC).

Male Wistar rats = experiment: Functional observation battery in rats (Irwin); type: in vivo, rat
Experimental: Any effects on body temperature were also assessed. Methods were adapted from those described by Irwin, 1968 for detecting behavioural effects in mice.
Male Wistar rats (Depré breeding centre, France), 6 weeks of age (160.0–190.6 g) on the day of randomisation were used. On the day of the test, animals were first scored using the Irwin standardised observation battery, and the body temperature was measured to establish baseline measurements. Groups of rats were then orally treated with S 47445 (50, 200, 500 and 1000 mg/kg) or its vehicle or clonidine, a reference item (3 mg/kg in water). The Irwin scores as well as measurement of body temperature were performed again at 1, 2, 4, 6 and 24 hours after administration of S 47445. Individual observation data were presented as a score attributed to each behavioural sign (intensity and relevance). For observations with absence or presence, the number of animals with the sign was provided per group. For other observations, the median value for each sign per time was presented per group. For body temperature, data were expressed as variations from predose values. […] The treatment effect on body temperature was analysed using one way ANOVA followed by Newman-Keul’s post hoc test. […]

Androgen (h) (AR) = experiment: Binding assay, [3H]methyltrienolone
ATPase (Na+/K+) = experiment: Enzyme and cell-based assay, ATP (2 mM)
Phospholipase C = experiment: Enzyme and cell-based assay, [3H]PIP2 (0.3 mM)
[15] = system: Guanylyl cyclase (stimulated); experiment: Enzyme and cell-based assay, GTP (0.1 mM) / SNP (10 μM)
[16] = system: rat primary cortical cell cultures; experiment: LDH release toxicity assay on rat primary cortical cell cultures; conditions: S 47445 10 μM

In the case of `O=C1c2cc3nnn(CCc4cccc(F)c4)c(=O)c3cc2OCN1C1CC1` [S 47445, 8-cyclopropyl-3-[2-(3-fluorophenyl)ethyl]-7,8-dihydro-3H-[1,3]oxazino[6,5-g][1,2,3]benzotriazine-4,9-dione], the EC50 [1] is reported as 5.4 µM, the EC50 [2] is reported as 2.6 µM and the EC50 [3] is reported as 4.3 µM. For the same compound, the EC50 [4] was 2.5 µM, the “Amplitude of potentiation, flop variants compared to flip variants at GluA1” value [5] was “about 9 fold” and the EC50 [6] was 5.4 µM. The EC50 [7] was 3.9 µM, the EC50 [8] was 3 µM and the EC50 [9] was 5.4 µM. The EC50 [10] was 3.3 µM, the EC50 [11] was 0.7 µM and the EC50 [12] was 3.8 µM. For the same compound, the EC50 [13] was 2.9 µM, the EC50 [14] was 4.2 µM and the “Body temperature and behavior” value (male NMRI mice; 30, 100 and 300 mg/kg oral acute) was “no significant effect”. For the same compound, the Spontaneous epileptic seizures (male NMRI mice; up to 300 mg/kg p.o.) was “No occurrence”, the “Body temperature and behavior” value (Male Wistar rats; 50, 200, 500 and 1000 mg/kg oral acute) was “no significant effect” and the Spontaneous epileptic seizures (Male Wistar rats; up to 1000 mg/kg p.o.) was “No occurrence”. For the same compound, the “% Inhibition of control specific binding” value (Androgen (h) (AR); S 47445 1.0E-05 M) was -5%, the “% Inhibition of control specific binding” value (Androgen (h) (AR); S 47445 1.0E-07 M) was 0% and the “% Inhibition of control specific binding” value (ATPase (Na+/K+); S 47445 1.0E-05 M) was -2%. The “% Inhibition of control specific binding” value (ATPase (Na+/K+); S 47445 1.0E-07 M) was -3%, the “% Inhibition of control specific binding” value (Phospholipase C; S 47445 1.0E-05 M) was 7% and the “% Inhibition of control specific binding” value (Phospholipase C; S 47445 1.0E-07 M) was -5%. For the same compound, the “% Inhibition of control specific binding” value ([15]; S 47445 1.0E-05 M) was 7%, the “% Inhibition of control specific binding” value ([15]; S 47445 1.0E-07 M) was -14% and the “Reduction of glutamate-induced LDH activity” value (“Reduction” below) ([16]; glutamate 50 μM) was 32.2%. The “Reduction” value ([16]; glutamate 75 μM) was 50.9% and the “Reduction” value ([16]; glutamate 100 μM) was 49.0%.
